From the supplement of paper PMC11061612

Experiments:
CS1 (Chondrosarcoma) = assay: Bliss excess, mean over the matrix (fraction); higher = more synergy
Method in brief: (§1)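 Cell lines grown in DMEM/F12 or RPMI with 10% FBS were plated in 1536-well plates and held 24 hours at 37°C, 5% CO2 before 72 hours of exposure to two-drug dose matrices, with DMSO typically at 0.2%. CellTiter-Glo 2.0 luminescence gave viability, which was converted to inhibition. Vehicle wells were set to 0 and blank wells to 1. Combination Emax is the second-highest inhibition in the matrix, and Bliss excess is the observed combination effect minus the expected EA + EB − EA·EB, where EA and EB are the single-agent effects.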

[1] = test system: ETK-1 (Biliary Tract Carcinoma); assay: as above
Method in brief: as §1

[2] = test system: SW948 (Colorectal Carcinoma); assay: as above
Method in brief: as §1

HCC38 (Breast Carcinoma) = assay: as above
Method in brief: as §1

[3] = test system: JHH-6 (Hepatocellular Carcinoma); assay: as above
Method in brief: as §1

[4] = test system: HOP-92 (Non-Small Cell Lung Carcinoma); assay: as above
Method in brief: as §1

[5] = test system: KG-1 (Acute Myeloid Leukemia); assay: as above
Method in brief: as §1

[6] = test system: BICR78 (Oral Cavity Carcinoma); assay: as above
Method in brief: as §1

[7] = test system: MEG-01 (Chronic Myelogenous Leukemia); assay: as above
Method in brief: as §1

SK-MEL-1 (Melanoma) = assay: as above
Method in brief: as §1

[8] = test system: PA-TU-8902 (Pancreatic Carcinoma); assay: as above
Method in brief: as §1

EW-22 (Ewing's Sarcoma) = assay: as above
Method in brief: as §1

HuO9 (Osteosarcoma) = assay: as above
Method in brief: as §1

[9] = test system: DOK (Oral Cavity Carcinoma); assay: as above
Method in brief: as §1

[10] = test system: SK-UT-1 (Other Solid Carcinomas); assay: combination Emax (second highest fraction inhibited in the dose matrix, 72 h); higher = more inhibition; extreme values may be limits of the assay
Method in brief: as §1

H4 (Low Grade Glioma) = assay: as above
Method in brief: as §1

[11] = test system: HOP-92 (Non-Small Cell Lung Carcinoma); assay: as above
Method in brief: as §1

[12] = test system: KG-1 (Acute Myeloid Leukemia); assay: as above
Method in brief: as §1

[13] = test system: MES-SA (Other Solid Carcinomas); assay: as above
Method in brief: as §1

[14] = test system: EKVX (Non-Small Cell Lung Carcinoma); assay: as above
Method in brief: as §1
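Wherever Bliss excess, mean over the matrix is given: after 72 h of two-drug dosing.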

SMILES	Bliss excess (CS1 (Chondrosarcoma))	Bliss excess [1]	Bliss excess [2]	Bliss excess (HCC38 (Breast Carcinoma))	Bliss excess [3]	Bliss excess [4]	Bliss excess [5]	Bliss excess [6]	Bliss excess [7]	Bliss excess (SK-MEL-1 (Melanoma))	Bliss excess [8]	Bliss excess (EW-22 (Ewing's Sarcoma))	Bliss excess (HuO9 (Osteosarcoma))	Bliss excess [9]	combination Emax [10]	combination Emax (H4 (Low Grade Glioma))	combination Emax [11]	combination Emax [12]	combination Emax [13]	combination Emax [14]
CN(CCO)CC[C@H](CSc1ccccc1)Nc1ccc(S(=O)(=O)NC(=O)c2ccc(N3CCC([C@@H](O)c4ccccc4-c4ccc(Cl)cc4)CC3)cc2)cc1S(=O)(=O)C(F)(F)F [AZD4320] + Cn1cnc2c(F)c(Nc3ccc(Br)cc3Cl)c(C(=O)NOCCO)cc21 [Selumetinib] (first compound max 1 µM, 7x7, partner max 3 µM)	-0.0054	0.0502	-0.0332	-0.0375	0.0455	-0.0341	0.0452	0.0362	0.0005	0.0228	0.0696	0.0011	0.041	-0.0003	0.345	0.418	0.963	0.971	0.246	0.314
Cc1c2c(nn1C)CSCc1cc(n(C)n1)CSc1cc(c3ccccc3c1)OCCCc1c(C(=O)O)n(C)c3c-2c(Cl)ccc13 [AZD5991] + C1CN(CCC1(C(=O)N[C@@H](CCO)C2=CC=C(C=C2)Cl)N)C3=NC=NC4=C3C=CN4 [Capivasertib] (first compound max 1 µM, 7x7, partner max 3 µM)	-0.0261	-0.0525	0.0308	0.0062	-0.0163	-0.0294	-0.0164	-0.0198	-0.0122	-0.0373	-0.041	0.0007	0.0085	-0.0113	0.24	0.495	0.402	1	0.367	0.301
Cc1c2c(nn1C)CSCc1cc(n(C)n1)CSc1cc(c3ccccc3c1)OCCCc1c(C(=O)O)n(C)c3c-2c(Cl)ccc13 [AZD5991] + C=CCn1c(=O)c2cnc(Nc3ccc(N4CCN(C)CC4)cc3)nc2n1-c1cccc(C(C)(C)O)n1 [AZD1775] (first compound max 1 µM, partner max 1 µM)	-0.0118	0.0386	-0.13	0.0396	-0.0647	-0.012	0.0391	-0.0034	-0.0401	-0.0137	-0.0326	0.0756	-0.0292	-0.0235	0.613	0.9	0.807	1	0.84	0.316
Cc1c2c(nn1C)CSCc1cc(n(C)n1)CSc1cc(c3ccccc3c1)OCCCc1c(C(=O)O)n(C)c3c-2c(Cl)ccc13 [AZD5991] + CC1(C)CCC(CN2CCN(c3ccc(C(=O)NS(=O)(=O)c4ccc(NCC5CCOCC5)c([N+](=O)[O-])c4)c(Oc4cnc5[nH]ccc5c4)c3)CC2)=C(c2ccc(Cl)cc2)C1 [Venetoclax] (first compound max 1 µM, 7x7, partner max 1 µM)	-0.0418	-0.0526	-0.003	-0.0307	-0.0417	0.0247	0.119	-0.0106	0.105	-0.0536	-0.0595	0.128	0.0182	0.0712	0.138	0.726	0.44	1	0.323	0.138
Cc1c2c(nn1C)CSCc1cc(n(C)n1)CSc1cc(c3ccccc3c1)OCCCc1c(C(=O)O)n(C)c3c-2c(Cl)ccc13 [AZD5991] + CCN(CCO)CCCOc1ccc2c(Nc3cc(CC(=O)Nc4cccc(F)c4)[nH]n3)ncnc2c1 [AZD2811] (first compound max 1 µM, 7x7, partner max 1 µM)	-0.044	-0.0018	-0.0014	0.058	-0.0298	0.0184	0.032	0.0088	0.002	-0.0194	-0.0356	0.0711	-0.0035	0.0524	0.367	0.586	0.689	1	0.806	0.226
Cc1c2c(nn1C)CSCc1cc(n(C)n1)CSc1cc(c3ccccc3c1)OCCCc1c(C(=O)O)n(C)c3c-2c(Cl)ccc13 [AZD5991] + CN(C)CCCOc1ccc(-c2ccc3ncc4c(c3c2)n(C2CCOCC2)c(=O)n4C)cn1 [AZD0156] (first compound max 1 µM, 7x7, partner max 1 µM)	0.0158	-0.0503	-0.0205	-0.0182	-0.0079	-0.044	0.0115	0.0199	-0.007	-0.0322	0.0116	-0.0015	-0.0171	-0.0121	0.245	0.448	0.41	1	0.384	0.239
Cc1c2c(nn1C)CSCc1cc(n(C)n1)CSc1cc(c3ccccc3c1)OCCCc1c(C(=O)O)n(C)c3c-2c(Cl)ccc13 [AZD5991] + C[C@@H](Nc1cc(F)cc(F)c1)c1cc(C(=O)N(C)C)cc2c(=O)cc(N3CCOCC3)oc12 [AZD8186] (first compound max 1 µM, 7x7, partner max 3 µM)	0.0031	-0.0221	-0.0498	0.011	-0.0281	0.0222	0.0031	-0.034	0.0019	-0.0232	-0.0361	-0.0396	0.0127	0.003	0.188	0.656	0.587	1	0.267	0.29
Cc1c2c(nn1C)CSCc1cc(n(C)n1)CSc1cc(c3ccccc3c1)OCCCc1c(C(=O)O)n(C)c3c-2c(Cl)ccc13 [AZD5991] + Cn1cnc2c(F)c(Nc3ccc(Br)cc3Cl)c(C(=O)NOCCO)cc21 [Selumetinib] (first compound max 1 µM, 7x7, partner max 3 µM)	-0.0136	-0.005	-0.0388	-0.0386	-0.0116	-0.0332	0.0316	-0.0106	0.139	-0.01	-0.0466	-0.019	-0.0386	0.0495	0.164	0.456	0.456	1	0.23	0.348
Cc1cc2ncnn2cc1Nc1ncc2c(n1)n(C1CCOCC1)c(=O)n2C [AZD7648] + C=CCn1c(=O)c2cnc(Nc3ccc(N4CCN(C)CC4)cc3)nc2n1-c1cccc(C(C)(C)O)n1 [AZD1775] (first compound max 10 µM, partner max 1 µM)	0.0046	-0.0144	-0.047	-0.0124	0.011	-0.0022	-0.0652	0.0189	-0.0209	-0.0561	0.0152	-0.0043	-0.0298	0.0331	0.657	0.796	0.613	0.452	0.75	0.306
Cc1cc2ncnn2cc1Nc1ncc2c(n1)n(C1CCOCC1)c(=O)n2C [AZD7648] + CCN(CCO)CCCOc1ccc2c(Nc3cc(CC(=O)Nc4cccc(F)c4)[nH]n3)ncnc2c1 [AZD2811] (first compound max 10 µM, 7x7, partner max 1 µM)	-0.0403	-0.0025	-0.0979	-0.0383	0.0238	-0.0038	0.0351	-0.0135	-0.0233	-0.0162	0.0315	-0.0261	0.051	0.0123	0.341	0.711	0.41	0.386	0.57	0.309
Cc1cc2ncnn2cc1Nc1ncc2c(n1)n(C1CCOCC1)c(=O)n2C [AZD7648] + CN(C)CCCOc1ccc(-c2ccc3ncc4c(c3c2)n(C2CCOCC2)c(=O)n4C)cn1 [AZD0156] (first compound max 10 µM, 7x7, partner max 1 µM)	-0.0028	-0.0041	0.0122	0.0157	-0.0033	-0.0136	-0.0155	0.0054	-0.0108	-0.0082	-0.0013	0.0335	0.0522	-0.0075	0.214	0.448	0.231	0.323	0.475	0.315
Cc1cc2ncnn2cc1Nc1ncc2c(n1)n(C1CCOCC1)c(=O)n2C [AZD7648] + C[C@@H]1COCCN1C2=NC(=NC(=C2)C3(CC3)[S@](=N)(=O)C)C4=C5C=CNC5=NC=C4 [AZD6738] (first compound max 10 µM, 7x7, partner max 10 µM)	0.0024	-0.0173	-0.0422	0.0245	0.036	0.0104	-0.0024	-0.0018	-0.0473	-0.0388	0.0186	0.0058	-0.0537	0.0441	0.757	0.789	0.493	0.67	0.632	0.317
COc1cccc2c1C(=O)c1c(O)c3c(c(O)c1C2=O)C[C@@](O)(C(=O)CO)C[C@@H]3O[C@H]1C[C@H](N)[C@H](O)[C@H](C)O1 [Doxorubicin] + Cc1cc2ncnn2cc1Nc1ncc2c(n1)n(C1CCOCC1)c(=O)n2C [AZD7648] (first compound max 1 µM, 7x7, partner max 10 µM)	0.0851	0.0878	0.0438	0.0206	0.0476	0.0271	0.0044	0.028	0.0698	0.0138	0.0081	0.061	0.0731	0.0485	0.873	0.818	0.547	0.365	0.826	0.378
COc1cccc(OCCCN)c1-c1cc(Nc2cnc(C#N)cn2)n[nH]1 [Prexasertib] + C=CCn1c(=O)c2cnc(Nc3ccc(N4CCN(C)CC4)cc3)nc2n1-c1cccc(C(C)(C)O)n1 [AZD1775] (first compound max 1 µM, partner max 1 µM)	0.0426	0.0651	0.0608	0.0246	0.0849	-0.0601	0.0038	0.0619	0.0016	-0.0084	0.0716	0.223	0.109	0.108	0.967	0.979	0.7	0.916	0.892	0.287
